According to ChEMBL document CHEMBL4406824, “Phenolic N-monosubstituted carbamates: Antitubercular and toxicity evaluation of multi-targeting compounds” (Eur J Med Chem, 2019):
Converted amounts (≈) assume the structure as drawn.

Columns and labels:
[1] = system: Mycobacterium tuberculosis; assay type: functional, H37Rv 331/88; design: reference not given here
[2] = system: Mycobacterium avium; experiment: Antimycobacterial activity against Mycobacterium avium 330/88 after 14 days; assay type: functional; conditions: 330/88, 336 h
[3] = system: Mycobacterium kansasii; experiment: Potency index, ratio of p-aminosalicylic acid MIC to compound MIC for antimycobacterial activity against Mycobacterium kansasii 235/80; assay type: functional
[4] = system: Mycobacterium kansasii; experiment: Potency index, ratio of p-aminosalicylic acid MIC to compound MIC for antimycobacterial activity against Mycobacterium kansasii 6509/96; assay type: functional
[5] = system: Mycobacterium kansasii; experiment: Antimycobacterial activity against Mycobacterium kansasii 6509/96 after 21 days; assay type: functional; conditions: 6509/96, 504 h
[6] = system: Mycolicibacterium smegmatis; experiment: Antimycobacterial activity against Mycobacterium smegmatis DSM 43465 after 120 hr by resazurin dye based microdilution method; assay type: functional; conditions: DSM 43465, 120 h
[7] = system: Mycolicibacterium aurum; experiment: Antimycobacterial activity against Mycobacterium aurum DSM 43999 after 72 hr by resazurin dye based microdilution method; assay type: functional; conditions: DSM 43999, 72 h
[8] = system: Mycobacterium tuberculosis H37Rv; experiment: Inhibition of recombinant Mycobacterium tuberculosis H37Rv ICL1 expressed in Escherichia coli BL21 (DE3) cells at 10 uM using (+)-potassium Ds-threo-isocitrate as substrate by glyoxylate phenyl hydrazone formation assay relative to control
[9] = system: Mycobacterium tuberculosis; experiment: Antimycobacterial activity against Mycobacterium tuberculosis H37Ra ITM-M006710 after 48 hr by resazurin dye based microdilution method; assay type: functional; conditions: H37Ra ITM-M006710, 48 h
[10] = system: Mycobacterium kansasii; experiment: Antimycobacterial activity against Mycobacterium kansasii 6509/96 after 7 days; assay type: functional; conditions: 6509/96, 168 h
[11] = system: Mycobacterium tuberculosis; experiment: Antimycobacterial activity against XDR Mycobacterium tuberculosis Praha 131 after 21 days; assay type: functional; conditions: Praha 131, 504 h
[12] = in vitro; conditions: human, HepG2 cells
Description: Selectivity index, ratio of IC50 for human HepG2 cells to MIC for antimycobacterial activity against Mycobacterium tuberculosis H37Rv

[13] = system: Mycobacterium kansasii; experiment: Antimycobacterial activity against Mycobacterium kansasii 235/80 after 14 days; assay type: functional; conditions: 235/80, 336 h
[14] = system: Mycobacterium kansasii; experiment: Antimycobacterial activity against Mycobacterium kansasii 235/80 after 7 days; assay type: functional; conditions: 235/80, 168 h
[15] = system: Mycobacterium tuberculosis; assay type: functional; conditions: H37Rv 331/88, 504 h
[16] = system: Mycobacterium kansasii; experiment: Antimycobacterial activity against Mycobacterium kansasii 235/80 after 21 days; assay type: functional; conditions: 235/80, 504 h
[17] = system: HepG2; experiment: Cytostatic activity against human HepG2 cells preincubated for overnight in serum free medium followed by compound wash out and further incubated for 72 hrs in presence of serum by MTT assay; assay type: ADME, cell-based
[18] = system: Mycobacterium kansasii; experiment: Antimycobacterial activity against Mycobacterium kansasii 6509/96 after 14 days; assay type: functional; conditions: 6509/96, 336 h
[19] = system: Mycobacterium tuberculosis; assay type: functional; conditions: H37Rv 331/88, 336 h
[20] = system: Mycobacterium avium; experiment: Antimycobacterial activity against Mycobacterium avium 330/88 after 21 days; assay type: functional; conditions: 330/88, 504 h
[21] = system: Mycobacterium tuberculosis; experiment: Antimycobacterial activity against XDR Mycobacterium tuberculosis Praha 131 after 14 days; assay type: functional; conditions: Praha 131, 336 h
[22] = system: HepG2; experiment: Cytotoxicity against human HepG2 cells assessed as reduction in cell viability after overnight incubation by MTT assay; assay type: cell-based

| Structure (SMILES) | Ratio [1] | MIC [2] [µM] | Ratio [3] | Ratio [4] | MIC [5] [µM] | MIC [6] | MIC [7] | inhibition [8] [%] | MIC [9] | MIC [10] [µM] | selectivity ratio [12] | MIC [13] [µM] | MIC [14] [µM] | MIC [15] [µM] | MIC [16] [µM] | IC50 [17] [µM] | MIC [18] [µM] | MIC [19] [µM] | MIC [20] [µM] | IC50 [22] [µM] | also measured |
| --- | --- | --- | --- | --- | --- | --- | --- | --- | --- | --- | --- | --- | --- | --- | --- | --- | --- | --- | --- | --- | --- |
| O=C(Nc1ccccc1)Oc1ccc(Cl)cc1C(=O)Nc1ccc(C(F)(F)F)cc1 | >125 | 8 (≈ 3.48 µg/mL) | >250 | >250 | 4 (≈ 1.74 µg/mL) | ≤ 0.9 µM | ≤ 0.9 µM | 13 | ≤ 0.9 µM | 2 (≈ 0.87 µg/mL) | 9.8 to 19.6 | 4 (≈ 1.74 µg/mL) | 4 (≈ 1.74 µg/mL) | 1 (≈ 0.435 µg/mL) | 4 (≈ 1.74 µg/mL) | 2.45 | 4 (≈ 1.74 µg/mL) | ≤ 0.5 | 8 (≈ 3.48 µg/mL) | 9.8 | MIC [11]: 1 µM (≈ 0.435 µg/mL); MIC [21]: 1 µM (≈ 0.435 µg/mL) |
| O=C(NCc1ccccc1)Oc1ccc(Cl)cc1C(=O)Nc1ccc(Br)cc1 | >125 | 8 (≈ 3.68 µg/mL) | >250 | >250 | 8 (≈ 3.68 µg/mL) | 1.98 µg/mL | 1.98 µg/mL | 17 | 3.91 µg/mL | 4 (≈ 1.84 µg/mL) | > 3.1 | 8 (≈ 3.68 µg/mL) | 4 (≈ 1.84 µg/mL) | 16 (≈ 7.36 µg/mL) | 8 (≈ 3.68 µg/mL) | 1.65 | 8 (≈ 3.68 µg/mL) | 16 (≈ 7.36 µg/mL) | 16 (≈ 7.36 µg/mL) | > 50 | – |
| O=C(NCc1ccccc1)Oc1ccc(Cl)cc1C(=O)Nc1ccc(C(F)(F)F)cc1 | >125 | 32 (≈ 14.4 µg/mL) | >250 | >250 | 16 (≈ 7.18 µg/mL) | 1.74 µM | ≤ 0.87 µM | 14 | ≤ 0.87 µM | 8 (≈ 3.59 µg/mL) | > 31.3 | 16 (≈ 7.18 µg/mL) | 8 (≈ 3.59 µg/mL) | 4 (≈ 1.8 µg/mL) | 16 (≈ 7.18 µg/mL) | 3 | 16 (≈ 7.18 µg/mL) | 2 (≈ 0.898 µg/mL) | 32 (≈ 14.4 µg/mL) | > 125 | – |
| O=C(NCCc1ccccc1)Oc1ccc(Cl)cc1C(=O)Nc1ccc(F)cc1 | >125 | 32 (≈ 13.2 µg/mL) | >250 | >250 | 16 (≈ 6.61 µg/mL) | 3.12 µg/mL | 3.12 µg/mL | 15 | 3.12 µg/mL | 8 (≈ 3.3 µg/mL) | 10.4 | 16 (≈ 6.61 µg/mL) | 8 (≈ 3.3 µg/mL) | 4 (≈ 1.65 µg/mL) | 16 (≈ 6.61 µg/mL) | 7.6 | 16 (≈ 6.61 µg/mL) | 4 (≈ 1.65 µg/mL) | 32 (≈ 13.2 µg/mL) | 41.5 | – |
| O=C(Nc1ccccc1)Oc1ccc(Cl)cc1C(=O)Nc1ccc(Br)cc1 | >125 | 8 (≈ 3.57 µg/mL) | >250 | >250 | 8 (≈ 3.57 µg/mL) | 1.56 µg/mL | 1.56 µg/mL | 17 | 1.56 µg/mL | 4 (≈ 1.78 µg/mL) | > 6.3 | 8 (≈ 3.57 µg/mL) | 4 (≈ 1.78 µg/mL) | 16 (≈ 7.13 µg/mL) | 8 (≈ 3.57 µg/mL) | 5.45 | 8 (≈ 3.57 µg/mL) | 8 (≈ 3.57 µg/mL) | 16 (≈ 7.13 µg/mL) | > 50 | – |
| O=C(NCc1ccccc1)Oc1ccc(Cl)cc1C(=O)Nc1ccc(F)cc1 | >125 | 62.5 (≈ 24.9 µg/mL) | >250 | >250 | 32 (≈ 12.8 µg/mL) | 3.12 µg/mL | 3.12 µg/mL | 15 | 3.12 µg/mL | 16 (≈ 6.38 µg/mL) | > 7.8 | 32 (≈ 12.8 µg/mL) | 16 (≈ 6.38 µg/mL) | 16 (≈ 6.38 µg/mL) | 32 (≈ 12.8 µg/mL) | 34.1 | 32 (≈ 12.8 µg/mL) | 8 (≈ 3.19 µg/mL) | 62.5 (≈ 24.9 µg/mL) | > 125 | – |
| O=C(NC1CCCCC1)Oc1ccc(Cl)cc1C(=O)Nc1ccc(Cl)cc1 | >125 | 16 (≈ 6.52 µg/mL) | >250 | >250 | 8 (≈ 3.26 µg/mL) | 1.56 µg/mL | 1.56 µg/mL | 13 | 3.12 µg/mL | 8 (≈ 3.26 µg/mL) | > 15.6 | 32 (≈ 13 µg/mL) | 16 (≈ 6.52 µg/mL) | 16 (≈ 6.52 µg/mL) | 32 (≈ 13 µg/mL) | 33.6 | 8 (≈ 3.26 µg/mL) | 16 (≈ 6.52 µg/mL) | 16 (≈ 6.52 µg/mL) | > 250 | – |
| O=C(Nc1ccccc1)Oc1ccc(Cl)cc1C(=O)Nc1ccc(F)cc1 | >125 | 32 (≈ 12.3 µg/mL) | >250 | >250 | 16 (≈ 6.16 µg/mL) | 1.98 µg/mL | 1.98 µg/mL | 16 | 3.12 µg/mL | 8 (≈ 3.08 µg/mL) | > 2.5 | 16 (≈ 6.16 µg/mL) | 8 (≈ 3.08 µg/mL) | 8 (≈ 3.08 µg/mL) | 32 (≈ 12.3 µg/mL) | 3.25 | 16 (≈ 6.16 µg/mL) | 4 (≈ 1.54 µg/mL) | 32 (≈ 12.3 µg/mL) | > 20 | – |
